Consider three compounds from patent publication US5326766A, “4-(2-(4-(2-pyridinyloxy)phenyl)ethoxy)quinazoline and analogues thereof” (priority 1992, dated 1994).

For data set [1], the system named is Erysiphe graminis tritici (powdery mildew). The data set is described as follows: Foliar spray fungicide test, Erysiphe graminis tritici (powdery mildew) on wheat. The following applies: for ERYSGT disease control: host wheat, 400 ppm (+++: 100 ppm).
The subject of data set [2] is Pyricularia oryzae (rice blast). The data set is described as follows: whole plant or invertebrate. The note with it: foliar spray, 400 ppm (+++: 100 ppm); for PYRIOR disease control: host rice. In kind it is in vivo.
Data set [3] concerns Plasmopara viticola (downy mildew). The data set is described as follows: Foliar spray fungicide test, Plasmopara viticola (downy mildew) on grape. The following applies: for pest or weed control at 400 µg/mL: Plasmopara viticola, foliar, read-out: PLASVI disease control.
Experimental: (§1) The test compounds were formulated for application by dissolving 50 mg of the compound into 1.25 ml of solvent. The solvent was prepared by mixing 50 ml of "Tween 20" (polyoxyethylene (20) sorbitan monolaurate emulsifier) with 475 ml of acetone and 475 ml of ethanol. The solvent/compound solution was diluted to 125 ml with deionized water. The resulting formulation contains 400 ppm test chemical. Lower concentrations were obtained by serial dilution with the solvent-surfactant mixture.
(§2) The formulated test compounds were applied by foliar spray.
(§3) The formulated technical compounds were sprayed on all foliar surfaces of the host plants to past run-off. Single pots of each host plant were placed on raised, revolving pedestals in a fume hood. Test solutions were sprayed on all foliar surfaces. All treatments were allowed to dry and the plants were inoculated with the appropriate pathogens within 24 hours.
(§4) The effectiveness of test compounds in controlling disease was rated using the following scale.
The subject of data set [4] is Leptosphaeria nodorum (glume blotch). Nature of the data set: Foliar spray fungicide test, Leptosphaeria nodorum (glume blotch) on wheat. The note with it: for LETPNO disease control: host wheat, 400 ppm (+++: 100 ppm).
Experimental: as §1, §2, §3, §4
In data set [5] the test system is tobacco budworm (Heliothis virescens). The data set is described as follows: Activity against tobacco budworm. The note with it: 6 days. In kind it is in vivo. A digest of the protocol: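 Compounds formulated in acetone/EtOH with aqueous Tween 20 and sprayed at 400 and 50 ppm onto half-strength lepidopteran diet cups seeded 1 h earlier with 18–20 eggs. After 6 days at room temperature, activity rated from live and dead larval counts and live larva size.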

For data set [6], the system named is cotton aphid (Aphis gossypii). The following applies: 400 ppm, squash plants, three days after treatment, 4320 min.
Data set [7] concerns aster leafhopper (Macrosteles fascifrons). The data set is described as follows: whole plant or invertebrate. Format: in vivo. The following applies: for ALH percent mortality: 24 hours, 1440 min. A digest of the protocol: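 Compounds were formulated in water with Tween 20 and acetone/EtOH and tested at 400 and 50 ppm. Percent mortality was scored after 24 h at room temperature.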

Data set [8] has as its system Puccinia recondita tritici (leaf rust). Nature of the data set: Foliar spray fungicide test, Puccinia recondita tritici (leaf rust) on wheat. The note with it: for PUCCRT disease control: host wheat, 400 ppm (+++: 100 ppm).
Experimental: as §1
The formulated test compounds were applied by foliar spray. The following plant pathogens and their corresponding plants were employed.
Puccinia recondita PUCCRT wheat
as §3, §4
For data set [9], the system named is beet armyworm (Spodoptera exiqua). Nature of the data set: Activity against beet armyworm. Format: in vivo. The following applies: 6 days. A digest of the protocol:
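Compounds formulated in acetone/EtOH with aqueous 0.05% Tween 20, tested at 400 and 50 ppm. Half-strength lepidopteran agar diet cups carrying 35-40 beet armyworm eggs sprayed through a flat-fan nozzle, dried, sealed and held 6 days at room temperature. Rated by live and dead larval counts and live larval size.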

The test system of data set [10] is two spotted spider mite (Tetranychus urticae). The following applies: 400 ppm, squash plants, three days after treatment, 4320 min.
In data set [11] the test system is German cockroach (Blattella germanicus). The data set is described as follows: whole plant or invertebrate. The following applies: 240 h, ten days, read-out: GECR activity (rated on live and dead insects). Format: in vivo.
The test system of data set [12] is Southern corn rootworm (Diabrotica undecimpuctata howardi Barber). Nature of the data set: whole plant or invertebrate. Format: in vivo. The following applies: 400 ppm, soil concentration of 24 ppm, 3-4 days, read-out: SCRW mortality.
Data set [13] shares this test system. The data set is described as follows: whole plant or invertebrate. Format: in vivo. The following applies: 3-4 days, read-out: SCRW mortality.
The subject of data set [14] is two spotted spider mite (Tetranychus urticae). The data set is described as follows: whole plant or invertebrate. The following applies: 72 h.
In data set [15] the test system is cotton aphid (Aphis gossypii). The data set is described as follows: whole plant or invertebrate. The note with it: 72 h.

As for `Fc1cccc2c(OCCc3ccc(Oc4nc(Cl)c(Cl)cc4Cl)cc3)ncnc12` [Compound 42], in data set [1], the ERYSGT disease control entry is “- (0-19% control at 400 ppm)”. Besides, the PYRIOR disease control result in data set [2] is “- (0-19% control at 400 ppm)”. Also, in [3], the pest or weed control at 400 µg/mL lay within 20 to 89%. For the same compound, in data set [4], the LETPNO disease control entry is recorded as “- (0-19% control at 400 ppm)”. Moreover, in [5] (400 ppm), the “TBW activity (rated on live and dead larvae and size of live larvae)” value was found to be 0. Further, the “CA activity (percent based on aphids present in plants sprayed with solvent alone)” value in [6] turned out to be 0%. In data set [7] (400 ppm), the ALH percent mortality is 60%. Also, the PUCCRT disease control entry in [8] is reported as “+ (20-89% control at 400 ppm)”. Also, in data set [9] (400 ppm), the “BAW activity (rated on live and dead larvae and size of live larvae)” value was found to be 0. Moreover, in data set [10], the “TSSM activity (percent based on mites present in plants sprayed with solvent alone)” value came out at 0%.

Regarding `Fc1cccc2c(OCCc3ccc(Oc4nc(Cl)c(Cl)cc4Cl)cc3)ncnc12` [Compound 44], the mortality at 400 ppm in data set [11] turned out to be 20%. The ERYSGT disease control result in [1] is reported as “+++ (90-100% control at 100 ppm)”. In data set [2], the PYRIOR disease control entry is recorded as “+ (20-89% control at 400 ppm)”. Also, the PLASVI disease control entry in [3] (host grape, foliar spray, 400 ppm (+++: 100 ppm)) was “+ (20-89% control at 400 ppm)”. For the same compound, in data set [4], the LETPNO disease control entry is listed as “+ (20-89% control at 400 ppm)”. Also, the “TBW activity (rated on live and dead larvae and size of live larvae)” value in [5] (400 ppm) amounted to 100. In addition, the mortality at 24 ppm in [12] amounted to 100%. Moreover, the “CA activity (percent based on aphids present in plants sprayed with solvent alone)” value in data set [6] is recorded as 100%. In data set [7] (400 ppm), this compound came in with an ALH percent mortality of 0%. Besides, the PUCCRT disease control entry in data set [8] is reported as “+++ (90-100% control at 100 ppm)”. In addition, the “BAW activity (rated on live and dead larvae and size of live larvae)” value in [9] (400 ppm) amounted to 100. Moreover, the “TSSM activity (percent based on mites present in plants sprayed with solvent alone)” value in data set [10] is 50%.

Turning to `c1ccc2c(OCCc3ccc(Oc4cnccn4)cc3)ncnc2c1` [Compound 51], the mortality at 50 ppm in [11] (50 ppm) worked out at 0%; in data set [13], 0%; in data set [14] (read-out: TSSM activity (percent based on mites present in plants sprayed with solvent alone), 50 ppm, squash plants, three days after treatment), 0%; in [7] (Macrosteles fascifrons, 24 h, 50 ppm, read-out: ALH percent mortality), 100%; in data set [15] (read-out: CA activity (percent based on aphids present in plants sprayed with solvent alone), 50 ppm, squash plants, three days after treatment), 0%. In addition, the mortality at 400 ppm stood at 0% in data set [11]; 0% in [14] (read-out: TSSM activity (percent based on mites present in plants sprayed with solvent alone), 400 ppm, squash plants, three days after treatment); 100% in data set [7] (Macrosteles fascifrons, 24 h, 400 ppm, read-out: ALH percent mortality); 0% in data set [15] (read-out: CA activity (percent based on aphids present in plants sprayed with solvent alone), 400 ppm, squash plants, three days after treatment). The pest or weed control at 400 µg/mL lay in the range of 90 to 100% in [1] (Blumeria graminis, in Triticum aestivum, foliar, read-out: ERYSGT disease control, host wheat, 400 ppm (+++: 100 ppm)); 90 to 100% in data set [2] (Pyricularia oryzae, foliar, read-out: PYRIOR disease control, host rice); 90 to 100% in [3]; 90 to 100% in [4] (Parastagonospora nodorum, in Triticum aestivum, foliar, read-out: LETPNO disease control, host wheat, 400 ppm (+++: 100 ppm)); 0 to 19% in [8] (Puccinia recondita, in Triticum aestivum, foliar, read-out: PUCCRT disease control, host wheat, 400 ppm (+++: 100 ppm)). The pest or weed control at 50 ppm in data set [5] (Heliothis virescens, 144 h, 50 ppm, read-out: TBW activity (rated on live and dead larvae and size of live larvae)) was found to be 100%; in data set [9] (Spodoptera, 144 h, 50 ppm, read-out: BAW activity (rated on live and dead larvae and size of live larvae)), 100%. For the same compound, the pest or weed control at 400 ppm in [5] (Heliothis virescens, 144 h, 400 ppm, read-out: TBW activity (rated on live and dead larvae and size of live larvae)) was determined as 100%; in [9] (Spodoptera, 144 h, 400 ppm, read-out: BAW activity (rated on live and dead larvae and size of live larvae)), 100%. Moreover, the mortality at 24 ppm in [12] was 100%.
